Laboratory results published in patent US12390441B2, “Immunomodulating o-het/aryl azalides” (Zoetis Services LLC, priority 2020, dated 2025).
“Also recorded” adds a separate entry of the source. Read-outs that look alike come from different tables or passages of the source.

Experiments:
[1] = system: TNF-α; assay: Whole blood assay, LPS stimulation, MSD cytokine detection; format: cell-based; details: Bos taurus, fresh whole bovine blood
[2] = system: IL-1β; assay: as above; format: cell-based, bovine; details: top dose 500 μM; cellular toxicity signal
[3] = system: P. multocida 46572; assay: In vivo mouse lung infection challenge model (murine); set-up: species or system CD-1 female mice
Outline: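 CD-1 female mice were challenged intranasally with mid-log P. multocida 46572 (target 5×10^2 CFU/mouse), then given 20 mg/kg subcutaneously in buffered (~pH 5.4) propylene glycol/monothioglycerol/water. Mortality was followed to Day 10, analysed by generalized mixed model and survival analysis; harmonized survival is relative to vehicle and positive controls.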

[4] = system: P. multocida; assay: Murine P. multocida intranasal challenge study, survival; format: in vivo, mice; details: 5×10^3 CFU/mouse; subcutaneous 18 hours after challenge; tulathromycin 16 mg/kg, M9 32 mg/kg, ceftiofur 9 mg/kg
[5] = target: T1, LCN2 (Bos taurus, UniProt A0AAA9TIZ6); assay: Surface plasmon resonance (SPR), KD; format: binding; details: biologically relevant pH
T1 sequence (A0AAA9TIZ6 1-200): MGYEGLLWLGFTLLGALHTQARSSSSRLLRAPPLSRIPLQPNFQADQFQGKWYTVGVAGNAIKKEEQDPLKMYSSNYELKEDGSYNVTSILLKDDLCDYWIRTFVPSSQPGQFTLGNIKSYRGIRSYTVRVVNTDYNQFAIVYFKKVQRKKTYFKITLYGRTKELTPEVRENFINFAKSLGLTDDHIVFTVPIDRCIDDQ
From the text: (§1) In order to add further clarity to binding partner identification, surface plasma resonance (SPR) technology was used. […] These targets were unique to this drug as compared to gamithromycin, a macrolide antibiotic used in the treatment of BRD. Both targets fit the paradigm that the immunological mechanism of action is linked to the pathways that are both of key importance as being dysregulated in BRD and modulated by M9. LCN2 is expressed by neutrophils upon activation of toll-like receptors (TLRs) and is a component of the innate inflammatory response. […] Very little information exists to date on SLAMF9. It is a member of a family of signal adaptor proteins that is thought to lack signal transduction capabilities.
(§2) KD is the equilibrium dissociation constant that was used to present the drug/target affinity. The identified targets associated with drug were measured by surface plasmon resonance (SPR) to define the KD.

[6] = target: SLAMF9 (Bos taurus, UniProt E1BNF9); assay: Surface plasmon resonance (SPR), KD; format: binding; details: biologically relevant pH
SLAMF9, sequence (E1BNF9 1-289): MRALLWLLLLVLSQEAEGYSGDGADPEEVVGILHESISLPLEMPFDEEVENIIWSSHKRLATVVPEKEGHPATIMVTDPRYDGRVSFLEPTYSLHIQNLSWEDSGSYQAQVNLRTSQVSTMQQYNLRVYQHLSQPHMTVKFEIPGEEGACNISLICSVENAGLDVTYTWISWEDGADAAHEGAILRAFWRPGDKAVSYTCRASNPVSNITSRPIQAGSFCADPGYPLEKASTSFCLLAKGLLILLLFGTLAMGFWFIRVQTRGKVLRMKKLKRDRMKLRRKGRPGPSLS
From the text: as §1, §2

[7] = system: M. haemolytica (OSU-012103-BHI); details: 10 mg/kg
[8] = system: IL-6; assay: Plasma IL-6 biomarker in bovine M. haemolytica challenge
[9] = system: CD163; assay: CD163 expression by flow cytometry, blood of treated cattle; details: monocytes/macrophages
[10] = system: M. haemolytica (OSU-012103-BHI); assay: In vivo bovine lung infection (intratracheal) challenge model
[11] = system: Lung bacteria isolated at necropsy; assay: MIC of recovered isolates, natural bovine respiratory disease study
Procedure: The primary clinical endpoint for efficacy was treatment failure/success over a 14-day observation period. Clinically normal beef calves (150-200 kg) at moderate risk for BRD were dosed on arrival to the feedlot. Animals (N=114/group) received saline (T01), 5 mg/kg M9 (T02) or 10 mg/kg M9 (T03); or Zactran (T04). […] Bacterial isolates were collected at necropsy and MICs were evaluated (Table 4).

[12] = H. somni (25) lung isolates at necropsy

CCCNC[C@]1(O)[C@H](C)O[C@@H](O[C@H]2[C@H](C)[C@@H](O[C@@H]3O[C@H](C)C[C@H](NC)[C@H]3O)[C@](C)(O)C[C@@H](C)CN[C@H](C)[C@@H](O)[C@](C)(O)[C@@H](CC)OC(=O)[C@@H]2C)C[C@@]1(C)OC [Example M9, (2R,3S,4R,5R,8R,10R,11R,12S,13S,14R)-2-ethyl-3,4,10-trihydroxy-13-(((2R,4R,5S,6S)-5-hydroxy-4-methoxy-4,6-dimethyl-5-((propylamino)methyl)-tetrahydro-2H-pyran-2-yl)oxy)-11-(((2S,3R,4S,6R)-3-hydroxy-6-methyl-4-(methylamino)tetrahydro-2H-pyran-2-yl)oxy)-3,5,8,10,12,14-hexamethyl-1-oxa-6-azacyclopentadecan-15-one]
IC50 [1]: 250 µM | overstimulation of IL-1B [2]: > 500 µM | Mouse survival ([3]; M9 positive control, 20 mg/kg): 90-100% | clinical efficacy, P. multocida infection in mice ([3]; mouse, in vivo): clinically efficacious | Survival at Day 7 [4]: ~50% | drug/target binding, LCN2 [5]: direct binding targets | drug/target binding, SLAMF9 [6]: direct binding targets | lung lesion scores ([7]; inhaled or nasal): 29 | mortality ([7]; separate study, vs. saline 38.9%): 13% | IL-6 levels [8]: significantly reduced | CD163 expression [9]: suppressed; also recorded: mitigates the pathologic increase | mortality ([10]; No challenge, M9 10 mg/kg (T04)): 0/6 | Mortality (%) ([10]; second intratracheal challenge study, 10 mg/kg (T05)): 12.5% | MIC50 [11, 12]: 32 µg/mL | MIC90 [11, 12]: 32 µg/mL | MIC Range [11, 12]: 8 to 64 µg/mL | MIC, BRD bacterial isolates collected at necropsy ([11]; some of the isolates): < 64 µg/mL
